# Where “and” joins values, the source holds several entries; their conditions need not be identical. Identical values can stand only once. Like-named read-outs stand apart in the source and are kept apart here.
# What was measured:
# WWP2 (SEQ ID NO:24) = biological target: T1, WWP2 (SEQ ID NO:24) (Homo sapiens, UniProt O00308); test: Epic label-free binding assay of compounds to immobilized WWP2; settings: Epic label-free binding, WWP2 as target; read-out: Kd
# T1 construct: poly-His (pET28b leader with thrombin site) (N, cleaved yes); made in house; host or cells: E. coli BL21 DE3
# T1 sequence (O00308 with tags, fused parts or gaps): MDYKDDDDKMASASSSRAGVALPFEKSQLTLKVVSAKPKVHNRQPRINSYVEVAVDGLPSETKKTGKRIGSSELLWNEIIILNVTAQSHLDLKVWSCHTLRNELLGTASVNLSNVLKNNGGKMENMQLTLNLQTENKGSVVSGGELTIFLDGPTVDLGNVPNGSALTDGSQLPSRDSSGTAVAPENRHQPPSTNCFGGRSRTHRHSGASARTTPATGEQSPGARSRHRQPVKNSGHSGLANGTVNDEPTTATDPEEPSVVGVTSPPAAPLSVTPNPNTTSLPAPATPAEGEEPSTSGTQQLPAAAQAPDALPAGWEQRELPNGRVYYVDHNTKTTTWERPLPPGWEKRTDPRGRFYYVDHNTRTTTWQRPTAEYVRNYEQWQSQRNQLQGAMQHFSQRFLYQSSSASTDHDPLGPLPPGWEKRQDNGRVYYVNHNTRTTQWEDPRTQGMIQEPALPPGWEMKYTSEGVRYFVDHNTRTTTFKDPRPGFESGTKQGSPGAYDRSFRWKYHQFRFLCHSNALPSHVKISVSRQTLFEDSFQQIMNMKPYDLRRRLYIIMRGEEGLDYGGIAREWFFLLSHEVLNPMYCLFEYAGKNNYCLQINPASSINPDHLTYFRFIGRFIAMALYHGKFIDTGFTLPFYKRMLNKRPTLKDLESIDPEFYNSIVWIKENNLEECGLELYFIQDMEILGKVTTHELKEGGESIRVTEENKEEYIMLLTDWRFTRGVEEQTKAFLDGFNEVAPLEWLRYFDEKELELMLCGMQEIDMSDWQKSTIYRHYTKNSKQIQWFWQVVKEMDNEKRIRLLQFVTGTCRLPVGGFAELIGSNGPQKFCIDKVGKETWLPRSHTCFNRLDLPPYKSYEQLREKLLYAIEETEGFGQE
# Procedure: Another preferred embodiment of an in vitro screening method is depicted in FIG. 3. In this method, the ability of the candidate compound 204 to directly interact with the cellular ESCRT-linked component protein (for example, Nedd4 family of polypeptides [for example, WWP1 (SEQ ID NO:29), WWP2 (SEQ ID NO:24), Nedd4 L, among others]) or TGS101 is evaluated. According to this embodiment, a cellular ESCRT component protein 202 is preferably immobilized to a substrate 201 (for example, a microtiter plate) via a linking group 203 (for example, an amine group). The substrate preferably includes an optional reference area that provides a control to prevent non-specific interactions with non-mobilized ESCRT complex protein 202 with substrate 201. The substrate 201 is washed and irradiated with broadband light so that a baseline refractive index is measured. Test compound 204 is added to the system to permit its binding to the immobilized ESCRT component protein 202 to form a resultant associative complex 205. The substrate 201 is irradiated with broadband light again to detect a change in the wavelength of the reflected light.
# High sensitivity biochemical plates (PerkinElmer Cat. No. 6057468) are used in WWP2 (SEQ ID NO:24) binding assay to maximize protein immobilization. […] Because compound stocks are in DMSO that affects the Epic label-free readout, the compound plates were prepared by Echo550 acoustic dispenser to keep DMSO content balanced for all wells. […]
# The binding of compounds to WWP2 (SEQ ID NO:24) was measured on the EnSpire label-free plate reader. After 25 minutes of thermal equilibration, a baseline reading was taken on the label-free plates with protein immobilized in assay buffer. […] The final reading was taken after 25 min of thermal equilibration and over a period of 60 minutes. The label-free responses were measured as shifts in reflected wavelength and were expressed in picometers (pm). Results were analyzed using the EnSpire label-free user interface software. […]
# COS-1 cells [1] = test: Cell growth based on cell lysate actin levels (Western); settings: versus DMSO-treated
# Procedure: The levels of actin of cell lysates prepared from DMSO-treated, […]-treated and N20-treated cells were determined by SDS-PAGE followed by Western analysis where the immunoblot were probed with mouse anti-actin antibody.
# HIV-1 [2] = test: Specific infectivity by MAGI assay; format: cell-based; settings: versus DMSO controls
# Procedure: The amount of infectious virus normalized to ng of p24 obtained from the ELISA assay in the tissue cultures was determined by multinuclear activation of a galactosidase indicator (MAGI) assay. In this assay, infectious unit is scored by the blue color that is assumed by infected MAGI cells (Hela cells that have been engineered to express the indicator when the infecting particle is able to simulated natural infection up until expression of HIV-1 Tat).
# COS-1 cells [3] = settings: K21 100 μM, N20 20 μM; for Cytotoxicity, average of the independent experiments: average in parentheses, DMSO 21%; for Cytotoxicity (blue cells/total cells x 100): single count, DMSO 24%, 18%
# Procedure: The standard trypan blue assay, where dead cells are blue when visualized under a light microscope, was used to determine the percent of dead cells in the culture. Briefly, cells from a well of DMSO-treated, K21-treated and N20-treated samples were dislodged from the well with a stream of 1 ml PBS, collected, pelleted at 200 rpm for 2 min, and suspended in 300 μl trypsin-EDTA, incubated at 37° C. for 30 min. A diluted cell suspension was prepared by mixing 200 μl of the trypsin-treated cell suspension and 800 μl of PBS was used for the assay. For the assay itself: from the 1 ml of diluted cell suspension, 50 μl was taken an placed on paraffin and to this was mixed in 50 μl of 0.4% Trypan Blue dye in PBS, after exactly 2 minutes later, the mixture was loaded on a hematocytometer. The hematocytometer was placed on the light microscope stage and a blue cell count and an all cells count (blue and not blue cells) obtained. Two 50 μl aliquots were counted per sample.
# HIV-1 [4] = test: Cell-based inhibition assay in transfected COS-1 cells, ELISA p24 capture assay of tissue culture media; settings: K21 100 μM, N20 20 μM, 24-hr treatment
# Procedure: COS-1 cells were seeded on twelve-well plates and grown in 1 ml of DMEM with 10% fbs and 1% Penicillin/Streptomycin. The following day, well were confluency was ˜60% were selected for co-transfection with an NL4-3 derived construct (pdeltaEnv) and pIIIEnv for expression of HIV-1 virus-encoded proteins. Inhibitor treatment was done on two sets of transfected cells: one, at 5 hr post-transfection and the other, at 24 hours post-transfection. In each case, the tissue culture media was removed and replaced with treatment Nedd4 inhibitor (100 μM final concentration for K21 and 20 μM final concentration for N20) or DMSO control (1% final concentration) in DMEM with 10% FBS, 1% Penicillin/Streptomycin, 5 mM MgCl2, and 0.5 mM CaCl2. After a 24-hr treatment period, the tissue culture media was collected, cleared of debris by running through a 0.45 um syringe filter and analyzed for amount of virus particles by Elisa p24 capture assay.
# At 100 μM, K21 was inhibitory to virus particle release. […] This was true whether the inhibitor was added at 5 hrs post-transfection or at 24 hrs post transfection. At 20 μM, N20 was also exerted an inhibitory effect on virus particle release but it was different from that of K21.
# [5] = inhibitor added 5 hrs post-transfection
# [6] = inhibitor added 24 hrs post-transfection
Structure (SMILES),Kd (WWP2 (SEQ ID NO:24)) [µM],Intensity of actin bands of cell lysates (COS-1 cells [1]),Counts of blue cells per ng p24 (specific infectivity) (HIV-1 [2]),"Cytotoxicity, average of the independent experiments (COS-1 cells [3])","Cytotoxicity (blue cells/total cells x 100) (COS-1 cells [3]; listed as K21, hydrochloride)",Amount of virus particle detected in tissue culture media (HIV-1 [4]; [5]),Amount of virus particle detected in tissue culture media (HIV-1 [4]; [6]),Cytotoxicity (blue cells/total cells x 100) (COS-1 cells [3]; listed as N20)
"Cl.NC(CO)C(=O)NNCc1ccc(O)c(O)c1O (racemic) [Benserazide Hydrochloride, (RS)-2-amino-3-hydroxy-N′-(2,3,4-trihydroxybenzyl) propanehydrazide hydrochloride]",7.9,essentially comparable for all samples,comparable,(31%),34% and 28%,reduction in the amount of virus particle detected,reduction in the amount of virus particle detected,
"CN(C)[C@@H]1C(O)=C(C(N)=O)C(=O)[C@@]2(O)C(=O)C3=C(O)c4c(O)cccc4[C@@](C)(O)[C@H]3[C@H](O)[C@@H]12 [Oxytetracycline, (4S,4aR,5S,5aR,6S,12aS)-4-(dimethylamino)-3,5,6,10,11,12a-hexahydroxy-6-methyl-1,12-dioxo-1,4,4a,5,5a,6,12,12a-octahydrotetracene-2-carboxamide]",10.6,essentially comparable for all samples,comparable,(32%),,reduction in the amount of virus particle detected,reduction was not seen,29% and 35%

# — patent publication US10765687B2, “Methods and compounds to inhibit enveloped virus release” (Northwestern University, priority 2012, dated 2020)
